Source: patent publication US20240368120A1 (Terns Pharmaceuticals, Inc., priority 2023, published 2024)

Molecular target: T1, human GLP-1R receptor (Homo sapiens, UniProt P43220)
T1 construct: expressed in transfected cells
Assay: GLP-1R low expression cell assay (cAMP TR-FRET, CHO-K1_hGLP-1Rlow_clone10 cells)
Type: cell-based
Conditions: for EC50: cAMP TR-FRET, 30 min at 25° C.; for Emax: maximum activation relative to control GLP-1 peptide agonist
Procedure: Stable cell lines expressing high and low GLP-1R surface expression were generated in CHO-K1 cells transfected (Fugene 6) with a puromycin selectable DNA plasmid encoding human GLP-1R receptor (accession number: NM_002062.5) under control of an EF1A promoter. Transfected cells were seeded into 24-well plates (9,000 cells/well) containing complete medium and incubated in a humidified incubator at 37° C. with 5% carbon dioxide. After overnight incubation, medium was replaced with complete medium supplemented with puromycin (6 μg/mL) and refreshed every 2-3 days to select for stably transfected cells. Individual pools of selected cells were expanded prior to analysis for responsiveness to GLP-1 control peptide using a TR-FRET assay to detect cAMP (LANCE Ultra CAMP Assay, Perkin Elmer). Briefly, cells were collected in Versene solution, plated in 384-well plates (1,000 cells/well) and combined with serially diluted GLP-IR control peptide (10 nL) using an acoustic dispenser (ECHO). Plates were incubated for 30 minutes at 25° C. prior to the addition of EU-CAMP tracer (5 μL) and Ulight-anti-CAMP (5 μL) reagents to each well, followed by 15 minutes incubation at 25° C. TR-FRET signal was detected using an En Vision Multimode Plate Reader (excitation=320 nm; emission=615 and 655 nm). Dose-response curves were used to generate EC50 values as a measure of responsiveness to the GLP-IR control peptide. Selected cell lines were monitored for responsiveness over multiple passages to ensure stability. […] Briefly, GLP-IR expression was analyzed by flow cytometry using a fluorescein-labeled Exendin-4 peptide fluorescent probe (FLEX). Cells were harvested in Versene solution and washed 3-times with PBS+0.5% BSA before incubation with FLEX reagent (10 μM) for 2 hours at room temperature. After incubation, cells were washed 3-times in PBS+0.5% BSA before final resuspension in PBS prior to analysis by flow cytometry to measure FLEX mean fluorescence intensity (MFI) as a measure of GLP-IR expression on the cell surface.
For compound testing in the CHO-K1_hGLP-IRlow_clone10 cell line, cells were seeded in 384-well plates (1,000 cells/well). Test compounds were serially diluted in DMSO (10-point, 3-fold dilution), added to wells using an ECHO dispenser (10 nL/well) and plates were centrifuged for 1 min and agitated for 2 min at room temperature prior to 30-minute incubation at 25° C. After incubation, Eu-CAMP (5 μL) and Ulight-anti-cAMP (5 μL) reagents were added to each well, followed by centrifugation for 1 minute, agitation for 2 minutes at room temperature, and final incubation of the plates at 25° C. for 15 minutes. Plates were read using an EnVision microplate reader (excitation=320 nm; emission=615 and 655 nm). Dose-response curves were generated from duplicate wells based on percent activation calculated relative to a control GLP-1 peptide agonist that was run in parallel. EC50 values were determined by fitting percent activation as a function of compound concentration using the Hill equation (XLfit).
The compounds tested were compound samples prepared according to the General Procedures described in the Examples section.

T1 sequence (P43220 24-463): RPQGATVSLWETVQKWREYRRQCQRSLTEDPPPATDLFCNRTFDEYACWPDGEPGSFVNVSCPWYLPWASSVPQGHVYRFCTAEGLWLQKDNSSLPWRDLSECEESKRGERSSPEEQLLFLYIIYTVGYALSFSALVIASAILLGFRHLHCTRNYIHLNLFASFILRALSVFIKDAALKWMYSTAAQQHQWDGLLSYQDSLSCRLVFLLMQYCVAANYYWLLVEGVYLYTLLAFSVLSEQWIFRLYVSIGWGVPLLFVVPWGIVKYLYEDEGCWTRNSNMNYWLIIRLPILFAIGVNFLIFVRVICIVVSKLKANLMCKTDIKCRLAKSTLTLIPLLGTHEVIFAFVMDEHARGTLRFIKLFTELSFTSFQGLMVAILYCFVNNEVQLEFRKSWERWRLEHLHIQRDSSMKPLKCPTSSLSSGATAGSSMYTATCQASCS

Compound | EC50 | Emax
Cn1c(CN2CCC(c3cccc(OCc4ccc(C#N)cc4F)n3)CC2)nc2c(OC(C)(F)F)cc(C(=O)O)cc21 [Compound 180, 2-((4-(6-((4-Cyano-2-fluorobenzyl)oxy)pyridin-2-yl)piperidin-1-yl)methyl)-4-(1,1-difluoroethoxy)-1-methyl-1H-benzo[d]imidazole-6-carboxylic acid] | 10 to 100 nM | > 85%
COc1cc(C(=O)O)cc2c1nc([C@@H](C)N1CCC(c3cccc4c3O[C@@](C)(c3ccc(Cl)cn3)O4)CC1)n2C [Compound 97, 2-((R)-1-(4-((S)-2-(5-chloropyridin-2-yl)-2-methylbenzo[d][1,3]dioxol-4-yl)piperidin-1-yl)ethyl)-4-methoxy-1-methyl-1H-benzo[d]imidazole-6-carboxylic acid] | > 1000 nM | > 85%
CO[C@H]1C[C@@H](Oc2cc(C(=O)O)cc3c2nc(CN2CCC(c4cccc(OCc5ccc(C#N)cc5F)n4)CC2)n3C)C1 [Compound 318, 2-((4-(6-((4-Cyano-2-fluorobenzyl)oxy)pyridin-2-yl)piperidin-1-yl)methyl)-4-((1s,3s)-3-methoxycyclobutoxy)-1-methyl-1H-benzo[d]imidazole-6-carboxylic acid] | 100 to 1000 nM | > 85%
Cn1c(CN2CC=C(c3cccc(OCc4ccc(Cl)cc4F)c3)CC2)nc2c(OC(F)F)cc(C(=O)O)cc21 [Compound 159, 2-((4-(3-((4-Chloro-2-fluorobenzyl)oxy)phenyl)-3,6-dihydropyridin-1(2H)-yl)methyl)-4-(difluoromethoxy)-1-methyl-1H-benzo[d]imidazole-6-carboxylic acid] | 100 to 1000 nM | > 85%
Cn1c(CN2CCC(c3cccc(OCc4ccc(C#N)cc4F)n3)CC2)nc2c(OC(C)(C)CF)cc(C(=O)O)cc21 [Compound 160, 2-((4-(6-((4-Cyano-2-fluorobenzyl)oxy)pyridin-2-yl)piperidin-1-yl)methyl)-4-((1-fluoro-2-methylpropan-2-yl)oxy)-1-methyl-1H-benzo[d]imidazole-6-carboxylic acid] | 100 to 1000 nM | > 85%
Cn1c(CN2CCC(c3cccc(N4CCc5cc(C#N)cc(F)c5C4)n3)CC2)nc2c(OC(F)F)cc(C(=O)O)cc21 [Compound 151, 2-((4-(6-(6-Cyano-8-fluoro-3,4-dihydroisoquinolin-2(1H)-yl)pyridin-2-yl)piperidin-1-yl)methyl)-4-(difluoromethoxy)-1-methyl-1H-benzo[d]imidazole-6-carboxylic acid] | 100 to 1000 nM | > 85%
C[C@]1(c2ccc(Cl)cn2)Oc2cccc(C3CCN(Cc4nc5c(O)cc(C(=O)O)cc5n4C[C@@H]4CCO4)CC3)c2O1 [Compound 92, 2-((4-((S)-2-(5-Chloropyridin-2-yl)-2-methylbenzo[d][1,3]dioxol-4-yl)piperidin-1-yl)methyl)-4-hydroxy-1-(((S)-oxetan-2-yl)methyl)-1H-benzo[d]imidazole-6-carboxylic acid] | < 10 nM | > 85%
CC(=O)Oc1cc(C(=O)O)cc2c1nc(CN1CCC(c3cccc(OCc4ccc(C#N)cc4F)n3)CC1)n2C [Compound 128, 4-Acetoxy-2-((4-(6-((4-cyano-2-fluorobenzyl)oxy)pyridin-2-yl)piperidin-1-yl)methyl)-1-methyl-1H-benzo[d]imidazole-6-carboxylic acid] | 10 to 100 nM | > 85%
COc1cc(C(=O)O)cc2c1nc(CN1CCC(c3cccc4c3O[C@@H](c3ccc(C#N)cc3F)CO4)CC1)n2Cc1cncs1 [Compound 63, (S)-2-((4-(3-(4-cyano-2-fluorophenyl)-2,3-dihydrobenzo[b][1,4]dioxin-5-yl)piperidin-1-yl)methyl)-4-methoxy-1-(thiazol-5-ylmethyl)-1H-benzo[d]imidazole-6-carboxylic acid] | < 10 nM | 
N#Cc1ccc(COc2cccc(C3CCN(Cc4nc5cc(C(=O)O)c6c(c5n4C[C@@H]4CCO4)OCCO6)CC3)n2)c(F)c1 [Compound 101, (S)-2-((4-(6-((4-Cyano-2-fluorobenzyl)oxy)pyridin-2-yl)piperidin-1-yl)methyl)-1-(oxetan-2-ylmethyl)-7,8-dihydro-1H-[1,4]dioxino[2′,3′:3,4]benzo[1,2-d]imidazole-5-carboxylic acid] | 10 to 100 nM | > 85%
Cn1c(CN2CCC(c3cccc(OCc4ccc(C#N)cc4F)n3)CC2)nc2c(C(C)(C)O)cc(C(=O)O)cc21 [Compound 126, 2-((4-(6-((4-cyano-2-fluorobenzyl)oxy)pyridin-2-yl)piperidin-1-yl)methyl)-4-(2-hydroxypropan-2-yl)-1-methyl-1H-benzo[d]imidazole-6-carboxylic acid] | > 1000 nM | 50 to 85%

Further lines, results first:

EC50 | Emax | Compound
100 to 1000 nM | > 85% | Cn1c(CN2CCC(c3cccc(OCc4ccc(C#N)cn4)n3)CC2)nc2c(OC(F)F)cc(C(=O)O)cc21 [Compound 213, 2-((4-(6-((5-Cyanopyridin-2-yl)methoxy)pyridin-2-yl)piperidin-1-yl)methyl)-4-(difluoromethoxy)-1-methyl-1H-benzo[d]imidazole-6-carboxylic acid]
> 1000 nM | 25 to 50% | COc1cc(C(=O)O)cc2c1nc(CN1CCC(c3cccc4c3O[C@@H](c3ccc(C#N)cc3F)CO4)CC1)n2C [Compound 314, (S)-2-((4-(3-(4-Cyano-2-fluorophenyl)-2,3-dihydrobenzo[b][1,4]dioxin-5-yl)piperidin-1-yl)methyl)-4-methoxy-1-methyl-1H-benzo[d]imidazole-6-carboxylic acid]
 | > 85% | CCOc1cc(C(=O)O)cc2c1nc(CN1CCC(c3cccc(OCc4ccc(Cl)cc4F)n3)CC1)n2C [Compound 358, 2-((4-(6-((4-Chloro-2-fluorobenzyl)oxy)pyridin-2-yl)piperidin-1-yl)methyl)-4-ethoxy-1-methyl-1H-benzo[d]imidazole-6-carboxylic acid]
> 1000 nM | 25 to 50% | Cn1c(CN2CCC(c3cccc(OCc4ccc(Cl)cc4F)n3)CC2)nc2c(OC(F)F)cc(-c3nnc(C(F)(F)F)[nH]3)cc21 [Compound 232, 2-((4-(6-((4-Chloro-2-fluorobenzyl)oxy)pyridin-2-yl)piperidin-1-yl)methyl)-4-(difluoromethoxy)-1-methyl-6-(5-(trifluoromethyl)-4H-1,2,4-triazol-3-yl)-1H-benzo[d]imidazole]
10 to 100 nM | > 85% | CC(CF)Oc1cc(C(=O)O)cc2c1nc(CN1CCC(c3cccc(OCc4ccc(Cl)cc4F)n3)CC1)n2C (single isomer, unassigned) [Compound 262]
10 to 100 nM | > 85% | CCOc1cc(C(=O)O)cc2c1nc(CN1CCC(c3cccc4c3O[C@H](c3ccc(C#N)cc3F)CO4)CC1)n2C [Compound 288, (R)-2-((4-(3-(4-Cyano-2-fluorophenyl)-2,3-dihydrobenzo[b][1,4]dioxin-5-yl)piperidin-1-yl)methyl)-4-ethoxy-1-methyl-1H-benzo[d]imidazole-6-carboxylic acid]
> 1000 nM | < 25% | Cn1c(CN2CCC(c3ccc4c(c3)N(Cc3ccc(Cl)cc3F)C(=O)CO4)CC2)nc2c(OC(F)F)cc(C(=O)O)cc21 [Compound 193, 2-((4-(4-(4-chloro-2-fluorobenzyl)-3-oxo-3,4-dihydro-2H-benzo[b][1,4]oxazin-6-yl)piperidin-1-yl)methyl)-4-(difluoromethoxy)-1-methyl-1H-benzo[d]imidazole-6-carboxylic acid]
> 1000 nM | 25 to 50% | Cn1c(CN2CCC(c3cccc(OCc4ccc(Cl)cc4F)c3)CC2)nc2c(OC(F)F)cc(NCC(=O)O)cc21 [Compound 264, (2-((4-(3-((4-chloro-2-fluorobenzyl)oxy)phenyl)piperidin-1-yl)methyl)-4-(difluoromethoxy)-1-methyl-1H-benzo[d]imidazol-6-yl)glycine]
> 1000 nM | < 25% | CN1C(=O)[C@@H](c2ccc(Cl)cc2F)Oc2c(C3CCN(Cc4nc5c(OC(F)F)cc(C(=O)O)cc5n4C)CC3)cccc21 [Compound 240, (R)-2-((4-(2-(4-chloro-2-fluorophenyl)-4-methyl-3-oxo-3,4-dihydro-2H-benzo[b][1,4]oxazin-8-yl)piperidin-1-yl)methyl)-4-(difluoromethoxy)-1-methyl-1H-benzo[d]imidazole-6-carboxylic acid]
